Results published in BindingDB's records for doi:10.1016/j.bmcl.2011.10.055 (Cephalon, 2011).
pIC50: −log10 of the molar value.

Molecular target: Insulin receptor (Homo sapiens, UniProt P06213)
Assay: Inhibition of GST-tagged intracellular domain of IR by homogeneous time-resolved fluorescence assay

With C=c1nns/c1=c1\[nH][nH]c(=O)c1=Cc1cn(C)c2cccc(OCc3ccccc3F)c12 the pIC50 was less than 5.00.

Compound C=c1nns/c1=c1\[nH][nH]c(=O)c1=Cc1cn(C)c2cccc(OCc3ccc(F)cc3)c12 has a pIC50 of less than 5.00.

Work on C=c1nns/c1=c1\[nH][nH]c(=O)c1=Cc1cn(C)c2cccc(OCc3cccc(F)c3)c12 yielded a pIC50 of less than 5.00.

In the case of C=c1nns/c1=c1\[nH][nH]c(=O)c1=Cc1cn(C)c2cccc(OCc3ccc(F)cc3F)c12, the pIC50 was less than 5.00.

C=c1nns/c1=c1\[nH][nH]c(=O)c1=Cc1cn(C)c2cccc(OCc3ccccc3)c12 showed a pIC50 of less than 5.00.
